From paper PMC5218480 (PLoS ONE, 2017) come the findings set out here.

In the experiment the test system is MV-4-11 cells. The experiment in a line: Gene expression microarray analysis (Affymetrix PrimeView) and GSEA. Also on record: RFU PODN (11730768_x_at) / Fold change /veh PODN (11730768_x_at) / RFU LINC00158 (11744669_a_at) / Fold change /veh LINC00158 (11744669_a_at) / RFU DUSP10 (11751237_a_at) / Fold change /veh DUSP10 (11751237_a_at) / RFU ID3 (11757404_x_at) / Fold change /veh ID3 (11757404_x_at) / RFU PLEKHG5 (11737974_s_at) / Fold change /veh PLEKHG5 (11737974_s_at) / RFU LRRC4B (11730491_at) / Fold change /veh LRRC4B (11730491_at) / RFU GIMAP4 (11747438_a_at) / Fold change /veh GIMAP4 (11747438_a_at) / RFU KRT8 (11758183_x_at) / Fold change /veh KRT8 (11758183_x_at) / RFU CNN1 (11734310_a_at) / Fold change /veh CNN1 (11734310_a_at) / RFU VPS37D (11726825_at) / Fold change /veh VPS37D (11726825_at) / RFU C10orf10 (11716522_x_at) / Fold change /veh C10orf10 (11716522_x_at) / RFU KIR2DL2 /// KIR2DL4 /// KIR2DL5A /// KIR2DL5B /// KIR2DS1 /// KIR2DS2 /// KIR2DS3 /// KIR2DS4 /// KIR3DL3 /// KIR3DL3 /// KIR3DS1 (11738374_at) / Fold change /veh KIR2DL2 /// KIR2DL4 /// KIR2DL5A /// KIR2DL5B /// KIR2DS1 /// KIR2DS2 /// KIR2DS3 /// KIR2DS4 /// KIR3DL3 /// KIR3DL3 /// KIR3DS1 (11738374_at) / RFU C1QL1 (11718748_at) / Fold change /veh C1QL1 (11718748_at) / RFU TMPRSS4 (11747572_a_at) / Fold change /veh TMPRSS4 (11747572_a_at) / RFU HAMP (11756126_x_at) / Fold change /veh HAMP (11756126_x_at) / RFU RNFT2 (11725882_a_at) / Fold change /veh RNFT2 (11725882_a_at) / RFU NR4A2 (11747474_a_at) / Fold change /veh NR4A2 (11747474_a_at) / RFU ABCC12 (11746883_a_at) / Fold change /veh ABCC12 (11746883_a_at) / RFU TMEM136 (11760407_x_at) / Fold change /veh TMEM136 (11760407_x_at) / RFU CLDN22 /// WWC2 (11732394_at) / Fold change /veh CLDN22 /// WWC2 (11732394_at) / RFU HLA-DPB1 (11760878_x_at) / Fold change /veh HLA-DPB1 (11760878_x_at) / RFU SPINT1 (11716480_a_at) / Fold change /veh SPINT1 (11716480_a_at) / RFU GAP43 (11754022_s_at) / Fold change /veh GAP43 (11754022_s_at) / RFU A4GNT (11735810_at) / Fold change /veh A4GNT (11735810_at) / RFU PRB3 (11715151_x_at) / Fold change /veh PRB3 (11715151_x_at) / RFU TUBB4B (11761932_at) / Fold change /veh TUBB4B (11761932_at) / RFU CAPN14 (11732068_a_at) / Fold change /veh CAPN14 (11732068_a_at) / RFU TMCC2 (11721928_a_at) / Fold change /veh TMCC2 (11721928_a_at) / RFU IRGQ (11745062_a_at) / Fold change /veh IRGQ (11745062_a_at) / RFU FAM174B (11720279_a_at) / Fold change /veh FAM174B (11720279_a_at) / RFU TMPRSS4 (11748680_a_at) / Fold change /veh TMPRSS4 (11748680_a_at) / RFU FAM212B (11763350_a_at) / Fold change /veh FAM212B (11763350_a_at) / RFU PLEKHG5 (11743358_a_at) / Fold change /veh PLEKHG5 (11743358_a_at) / RFU ZSCAN30 (11745921_a_at) / Fold change /veh ZSCAN30 (11745921_a_at) / RFU CMKLR1 (11741424_a_at) / Fold change /veh CMKLR1 (11741424_a_at) / RFU LOC101060620 /// MAPK8IP1 (11723275_at) / Fold change /veh LOC101060620 /// MAPK8IP1 (11723275_at) / RFU SPTSSB (11747773_x_at) / Fold change /veh SPTSSB (11747773_x_at) / RFU PRSS12 (11739890_at) / Fold change /veh PRSS12 (11739890_at) / RFU BIN1 (11741810_x_at) / Fold change /veh BIN1 (11741810_x_at) / RFU WNT11 (11732464_a_at) / Fold change /veh WNT11 (11732464_a_at) / RFU C10orf10 (11716521_a_at) / Fold change /veh C10orf10 (11716521_a_at) / RFU C5orf56 (11738089_at) / Fold change /veh C5orf56 (11738089_at) / RFU CYB561 (11721691_x_at) / Fold change /veh CYB561 (11721691_x_at) / RFU ANKRD19P (11752326_a_at) / Fold change /veh ANKRD19P (11752326_a_at) / RFU OR2T12 /// OR2T33 /// OR2T8 (11738714_s_at) / Fold change /veh OR2T12 /// OR2T33 /// OR2T8 (11738714_s_at) / RFU VCAN (11748164_a_at) / Fold change /veh VCAN (11748164_a_at) / RFU JSRP1 (11732532_at) / Fold change /veh JSRP1 (11732532_at) / RFU KRTAP10-11 (11738290_x_at) / Fold change /veh KRTAP10-11 (11738290_x_at) / RFU MYO3A (11730013_a_at) / Fold change /veh MYO3A (11730013_a_at) / RFU EBF3 (11725865_a_at) / Fold change /veh EBF3 (11725865_a_at) / RFU CAMK2N1 (11719241_x_at) / Fold change /veh CAMK2N1 (11719241_x_at) / RFU C5orf56 (11738088_a_at) / Fold change /veh C5orf56 (11738088_a_at) / RFU OLFML3 (11715873_a_at) / Fold change /veh OLFML3 (11715873_a_at) / RFU LOC100653217 /// NTM (11731650_a_at) / Fold change /veh LOC100653217 /// NTM (11731650_a_at) / RFU MAPK11 (11762145_a_at) / Fold change /veh MAPK11 (11762145_a_at) / RFU FIZ1 (11724087_x_at) / Fold change /veh FIZ1 (11724087_x_at) / RFU OASL (11726364_x_at) / Fold change /veh OASL (11726364_x_at) / RFU SOX15 (11748057_x_at) / Fold change /veh SOX15 (11748057_x_at) / RFU CD79A (11719716_a_at) / Fold change /veh CD79A (11719716_a_at) / RFU HIST1H1D (11736915_at) / Fold change /veh HIST1H1D (11736915_at) / RFU CASKIN2 (11723855_a_at) / Fold change /veh CASKIN2 (11723855_a_at) / RFU LOC730098 (11760151_x_at) / Fold change /veh LOC730098 (11760151_x_at) / RFU OR4N2 (11742367_at) / Fold change /veh OR4N2 (11742367_at) / RFU PRRT2 (11749266_a_at) / Fold change /veh PRRT2 (11749266_a_at) / RFU SNX32 (11753110_a_at) / Fold change /veh SNX32 (11753110_a_at) / RFU CDHR5 (11726645_a_at) / Fold change /veh CDHR5 (11726645_a_at) / RFU RCAN1 (11760418_a_at) / Fold change /veh RCAN1 (11760418_a_at) / RFU FAM167A (11723789_a_at) / Fold change /veh FAM167A (11723789_a_at) / RFU FAM26E (11764081_at) / Fold change /veh FAM26E (11764081_at) / RFU ISYNA1 (11749810_s_at) / Fold change /veh ISYNA1 (11749810_s_at) / RFU ACY1 (11761880_at) / Fold change /veh ACY1 (11761880_at) / RFU 11764098_at / Fold change /veh 11764098_at / RFU SAMD14 (11745864_x_at) / Fold change /veh SAMD14 (11745864_x_at) / RFU NPB (11741838_a_at) / Fold change /veh NPB (11741838_a_at) / RFU TMPRSS6 (11731388_a_at) / Fold change /veh TMPRSS6 (11731388_a_at) / RFU KRTAP10-2 (11738614_at) / Fold change /veh KRTAP10-2 (11738614_at) / RFU ARHGAP8 /// PRR5-ARHGAP8 (11727945_x_at) / Fold change /veh ARHGAP8 /// PRR5-ARHGAP8 (11727945_x_at) / RFU KRTAP5-7 /// NADSYN1 (11734609_at) / Fold change /veh KRTAP5-7 /// NADSYN1 (11734609_at) / RFU RASL12 (11751679_a_at) / Fold change /veh RASL12 (11751679_a_at) / RFU CDKN2B (11736163_a_at) / Fold change /veh CDKN2B (11736163_a_at) / RFU PRF1 (11729649_at) / Fold change /veh PRF1 (11729649_at) / RFU, ZNF638 /// ZNF638-IT1 / Fold change vs veh, ZNF638 /// ZNF638-IT1 / RFU, PANK3 / Fold change vs veh, PANK3 / RFU, SH3YL1 / Fold change vs veh, SH3YL1 / RFU, ZEB2 / Fold change vs veh, ZEB2 / RFU, NRIP1 / Fold change vs veh, NRIP1 / RFU, PTTG1IP / Fold change vs veh, PTTG1IP / RFU, CAPN2 / Fold change vs veh, CAPN2 / RFU, MED14 / Fold change vs veh, MED14 / RFU, SNORA58 / Fold change vs veh, SNORA58 / RFU, C1orf63 / Fold change vs veh, C1orf63 / RFU, LRRFIP1 / Fold change vs veh, LRRFIP1 / RFU, NDUFAF7 / Fold change vs veh, NDUFAF7 / RFU, SLC12A2 / Fold change vs veh, SLC12A2 / RFU, IBTK / Fold change vs veh, IBTK / RFU, ESF1 / Fold change vs veh, ESF1 / Fold change vs veh, TMEM50B / RFU, TAOK1 / Fold change vs veh, TAOK1 / RFU, ACBD3 / Fold change vs veh, ACBD3 / RFU, TMA16 / Fold change vs veh, TMA16 / RFU, RWDD3 / Fold change vs veh, RWDD3 / RFU, BCAT1 / Fold change vs veh, BCAT1 / RFU, EDEM3 / Fold change vs veh, EDEM3 / RFU, TMEM33 / Fold change vs veh, TMEM33 / RFU, WDR75 / Fold change vs veh, WDR75 / RFU, AHCTF1 / Fold change vs veh, AHCTF1 / RFU, TFRC / Fold change vs veh, TFRC / RFU, ZDHHC17 / Fold change vs veh, ZDHHC17 / RFU, NOM1 / Fold change vs veh, NOM1 / RFU, ARL8B / Fold change vs veh, ARL8B / RFU, ZBTB11 / Fold change vs veh, ZBTB11 / RFU, TAMM41 / Fold change vs veh, TAMM41 / RFU, KIAA1704 /// LOC100996395 / Fold change vs veh, KIAA1704 /// LOC100996395 / RFU, ING1 / Fold change vs veh, ING1 / RFU, TRMT61B / Fold change vs veh, TRMT61B / RFU, FUBP3 / Fold change vs veh, FUBP3 / RFU, TP53 / Fold change vs veh, TP53 / RFU, TNKS2 / Fold change vs veh, TNKS2 / RFU, ZFP14 / Fold change vs veh, ZFP14 / RFU, ACTR2 / Fold change vs veh, ACTR2 / RFU, PPP3R1 / Fold change vs veh, PPP3R1 / RFU, PIK3R1 / Fold change vs veh, PIK3R1 / RFU, HNRNPA1 / Fold change vs veh, HNRNPA1 / RFU, RNF170 / Fold change vs veh, RNF170 / RFU, ZNF28 / Fold change vs veh, ZNF28 / RFU, RNGTT / Fold change vs veh, RNGTT / RFU, OGT / Fold change vs veh, OGT / RFU, BRD1 / Fold change vs veh, BRD1 / RFU, MARS / Fold change vs veh, MARS / RFU, ZNF655 / Fold change vs veh, ZNF655 / RFU, FAHD1 / Fold change vs veh, FAHD1 / RFU, BDP1 / Fold change vs veh, BDP1 / RFU, LRRCC1 / Fold change vs veh, LRRCC1 / RFU, ARID1A / Fold change vs veh, ARID1A / RFU, ZNF146 / Fold change vs veh, ZNF146 / RFU, ZNF330 / Fold change vs veh, ZNF330 / RFU, GPN3 / Fold change vs veh, GPN3 / RFU, C9orf123 / Fold change vs veh, C9orf123 / RFU, N4BP2L2 / Fold change vs veh, N4BP2L2 / RFU, ARFIP1 / Fold change vs veh, ARFIP1 / RFU, FAM179B / Fold change vs veh, FAM179B / RFU, BCL10 / Fold change vs veh, BCL10 / RFU, UHRF1BP1L / Fold change vs veh, UHRF1BP1L / RFU, BET1 / Fold change vs veh, BET1 / RFU, CNOT2 / Fold change vs veh, CNOT2 / RFU, ZNF268 / Fold change vs veh, ZNF268 / Fold change vs veh, ZNF507 / RFU, DGCR2 / Fold change vs veh, DGCR2 / RFU, WDSUB1 / Fold change vs veh, WDSUB1 / Fold change vs veh, HSP90B1 /// MIR3652 / RFU, ADSS / Fold change vs veh, ADSS / RFU, GK / Fold change vs veh, GK / RFU, ZNF148 / Fold change vs veh, ZNF148 / RFU, TAF9 / Fold change vs veh, TAF9 / RFU, SLC1A5 / Fold change vs veh, SLC1A5 / RFU, SLMO2 / Fold change vs veh, SLMO2 / RFU, ABCC4 / Fold change vs veh, ABCC4 / RFU, LOC101060439 /// RAP1B / Fold change vs veh, LOC101060439 /// RAP1B / RFU, RFX7 / Fold change vs veh, RFX7 / RFU, GTPBP10 / Fold change vs veh, GTPBP10 / RFU, CNEP1R1 / Fold change vs veh, CNEP1R1 / RFU, BIVM-ERCC5 /// ERCC5 / Fold change vs veh, BIVM-ERCC5 /// ERCC5 / RFU, ILF3 / Fold change vs veh, ILF3 / RFU 11762660_at / Fold change /veh 11762660_at / RFU VCAN (11757783_s_at) / Fold change /veh VCAN (11757783_s_at) / RFU DDX43 (11728927_at) / Fold change /veh DDX43 (11728927_at) / RFU KRT8 (11758188_x_at) / Fold change /veh KRT8 (11758188_x_at) / RFU NKD1 (11759106_at) / Fold change /veh NKD1 (11759106_at) / RFU SRD5A1 (11742802_a_at) / Fold change /veh SRD5A1 (11742802_a_at) / RFU TPSAB1 /// TPSB2 (11721975_s_at) / Fold change /veh TPSAB1 /// TPSB2 (11721975_s_at) / RFU GSTM3 (11746129_a_at) / Fold change /veh GSTM3 (11746129_a_at) / RFU IL23R (11737362_x_at) / Fold change /veh IL23R (11737362_x_at) / RFU TMEM51 (11727254_a_at) / Fold change /veh TMEM51 (11727254_a_at) / RFU PIWIL2 (11732686_x_at) / Fold change /veh PIWIL2 (11732686_x_at) / RFU ORM1 (11744905_x_at) / Fold change /veh ORM1 (11744905_x_at) / RFU CCDC152 (11743942_at) / Fold change /veh CCDC152 (11743942_at) / RFU ECM1 (11717891_a_at) / Fold change /veh ECM1 (11717891_a_at) / RFU IL23R (11748794_a_at) / Fold change /veh IL23R (11748794_a_at) / RFU TNFAIP8L3 (11732012_x_at) / Fold change /veh TNFAIP8L3 (11732012_x_at) / RFU MBOAT4 (11741988_at) / Fold change /veh MBOAT4 (11741988_at) / RFU 11764193_at / Fold change /veh 11764193_at / RFU TMEM53 (11763286_at) / Fold change /veh TMEM53 (11763286_at) / RFU MAGEB2 (11727129_at) / Fold change /veh MAGEB2 (11727129_at) / RFU TMEM200A (11744735_a_at) / Fold change /veh TMEM200A (11744735_a_at) / RFU CCDC152 (11751479_a_at) / Fold change /veh CCDC152 (11751479_a_at) / RFU FAM211A (11726209_a_at) / Fold change /veh FAM211A (11726209_a_at) / RFU RGS16 (11746705_a_at) / Fold change /veh RGS16 (11746705_a_at) / RFU VCAN (11755009_s_at) / Fold change /veh VCAN (11755009_s_at) / RFU RHOB (11743442_s_at) / Fold change /veh RHOB (11743442_s_at) / RFU RGS16 (11720943_a_at) / Fold change /veh RGS16 (11720943_a_at) / RFU RGS16 (11720944_at) / Fold change /veh RGS16 (11720944_at) / RFU, VPS4B / Fold change vs veh, VPS4B / RFU, CREB1 / Fold change vs veh, CREB1 / RFU, DNAJC13 / Fold change vs veh, DNAJC13 / RFU, GNAQ / Fold change vs veh, GNAQ / RFU, CDK5R1 / Fold change vs veh, CDK5R1 / RFU, ZRANB3 / Fold change vs veh, ZRANB3 / RFU, CUL4A / Fold change vs veh, CUL4A / RFU, CCNY / Fold change vs veh, CCNY / RFU, UFL1 / Fold change vs veh, UFL1 / RFU, COG3 / Fold change vs veh, COG3 / RFU, DIAPH2 / Fold change vs veh, DIAPH2 / RFU, SKA2 / Fold change vs veh, SKA2 / RFU, AFF3 / Fold change vs veh, AFF3 / RFU, LMF1 / Fold change vs veh, LMF1 / RFU, IPO11 / Fold change vs veh, IPO11 / RFU, DFFB / Fold change vs veh, DFFB / RFU, FOXP1 / Fold change vs veh, FOXP1 / RFU, CARD8 / Fold change vs veh, CARD8 / RFU, STRN3 / Fold change vs veh, STRN3 / RFU, ADK / Fold change vs veh, ADK / RFU, RASSF2 / Fold change vs veh, RASSF2 / RFU, WIPF1 / Fold change vs veh, WIPF1 / RFU, LARP1B / Fold change vs veh, LARP1B / RFU, RASA1 / Fold change vs veh, RASA1 / RFU, RB1 / Fold change vs veh, RB1 / RFU, PPFIA1 / Fold change vs veh, PPFIA1 / RFU, MAT2A / Fold change vs veh, MAT2A / RFU, CCT5 / Fold change vs veh, CCT5 / RFU, WDR92 / Fold change vs veh, WDR92 / RFU, CUX1 / Fold change vs veh, CUX1 / RFU, TTC7A / Fold change vs veh, TTC7A / RFU, TMEM135 / Fold change vs veh, TMEM135 / RFU, DEPTOR / Fold change vs veh, DEPTOR / RFU, CPM / Fold change vs veh, CPM / RFU, DNAJB6 / Fold change vs veh, DNAJB6 / RFU, CACNA2D3 / Fold change vs veh, CACNA2D3 / RFU, DTX4 / Fold change vs veh, DTX4 / RFU, TFCP2 / Fold change vs veh, TFCP2 / RFU, GMCL1 /// GMCL1P1 / Fold change vs veh, GMCL1 /// GMCL1P1 / RFU, AEBP2 / Fold change vs veh, AEBP2 / RFU, SNHG1 /// SNORD22 /// SNORD25 /// SNORD26 /// SNORD27 /// SNORD28 /// SNORD29 /// SNORD31 / Fold change vs veh, SNHG1 /// SNORD22 /// SNORD25 /// SNORD26 /// SNORD27 /// SNORD28 /// SNORD29 /// SNORD31 / Fold change (Aza/veh), C12orf56 (ProbeSet 11735607_a_at) / Fold change (ACY-1035/veh), C12orf56 (ProbeSet 11735607_a_at) / Fold change (Aza/veh), FGFR1OP (ProbeSet 11751329_s_at) / Fold change (ACY-1035/veh), FGFR1OP (ProbeSet 11751329_s_at) / Fold change (Aza/veh), VPS36 (ProbeSet 11739960_a_at) / Fold change (ACY-1035/veh), VPS36 (ProbeSet 11739960_a_at) / RFU SYPL1 (11715823_x_at) / Fold change /veh SYPL1 (11715823_x_at) / RFU IGFBP7 (11715501_s_at) / Fold change /veh IGFBP7 (11715501_s_at) / RFU REEP3 (11722064_at) / Fold change /veh REEP3 (11722064_at) / RFU IGLL1 (11728026_x_at) / Fold change /veh IGLL1 (11728026_x_at): dose or concentration left out as unconfirmed. It is filed as cell-based, human. To be noted: ProbeSet 11724526_at; LIST B.

For the compound `Nc1ncn([C@@H]2O[C@H](CO)[C@@H](O)[C@H]2O)c(=O)n1` [azacitidine], the “Fold change vs veh, FAHD1” value is on record as 0.84.
